# From patent US12447198B2, “Peptides and fragments for treating diabetes and associated metabolic diseases” (Betavive Ltd., priority 2021, dated 2025)
# Tested on: db/db mice
# Assay: Histopathology and immunohistochemical staining of pancreas islet cells in db/db mice
# Type: in vivo, mouse
# Conditions: sacrificed 70 days after the end of treatment
# Procedure: FIG. 27 provides results of histopathology and immunohistochemical studies showing the number of pancreas islet cells that test positive for insulin (left panel) and glucagon (right panel) in db/db mice. In this experiment, one group of db/db mice was injected with 12000 μg/kg of IGF-2 on each of 70 consecutive days, a second group of db/db mice was injected with saline, and a third group of db/db mice was a naïve control group. The mice were sacrificed for pathology 70 days after the end of the initial 70 day treatment.
# In this experiment, one group of db/db mice (labeled X4) was injected with 12000 μg/kg of IGF-2 on each of 70 consecutive days, a second group of db/db mice (labeled X1) was injected with 3000 μg/kg of IGF-2 on each of 70 consecutive days, and a third group of db/db mice (labeled control) was injected with saline. The mice were sacrificed for pathology 70 days after the end of the initial 70 day treatment. […] The control panels show a positive stain for insulin, which increases in intensity in the 3000 μg/kg/day mice, and increases again in intensity in the 12,000 μg/kg/day mice.
substance,measurement,setting,value
insulin-like growth factor 2 [IGF-2],increase in the number of insulin-positive cells,12000 μg/kg on each of 70 consecutive days,more than 50%
same,insulin positive cells (immunohistochemical staining),3000 and 12000 μg/kg on each of 70 consecutive days vs saline,increase in insulin positive cells in a dose-dependent manner
